Measured values: US8685935B2, “Use of flavonoids to increase the bioavailability of hesperetin” (Nestec S.A., priority 2009, dated 2014)

Tested on: Caco-2 cell monolayers
Experiment: Caco-2 cell monolayer Transwell model: formation and transport of hesperetin and its conjugates
Assay type: in vitro ADME
Conditions: 120 minutes upon exposure to 10 μM (5 nmol) hesperetin added to the apical compartment
Description: Caco-2 cell monolayers were grown on permeable filters that divide a two-compartment cell culture system. Although originally derived from a colonic adenoma carcinoma, differentiating Caco-2 cells are known to display morphological and biochemical properties of intestinal enterocytes including the formation of a polarized layer with expression of ABC transport proteins including Pgp, MRP1, MRP2 and BCRP and metabolizing enzymes.
Using the Caco-2 cell monolayer Transwell model in which the cells in the apical compartment were exposed to hesperetin, or combinations of hesperetin and other flavonoids, we studied the formation and transport of intestinal hesperetin conjugates, which were formed by the Caco-2 cells. 120 minutes upon exposure to 10 μM (5 nmol) hesperetin added to the apical compartment. […] These metabolites were identified as hesperetin 7-O-glucuronide and hesperetin 7-O-sulfate.

## COc1ccc([C@@H]2CC(=O)c3c(O)cc(O[C@@H]4O[C@H](C(=O)O)[C@@H](O)[C@H](O)[C@H]4O)cc3O2)cc1O [hesperetin 7-O-glucuronide]
  amount of metabolite in apical compartment compared to basolateral: detected at much higher amounts in the apical compartment compared to the basolateral

## COc1ccc([C@@H]2CC(=O)c3c(O)cc(OS(=O)(=O)O)cc3O2)cc1O [hesperetin 7-O-sulfate]
  amount of metabolite in apical compartment compared to basolateral: detected at much higher amounts in the apical compartment compared to the basolateral
